Measurements taken from US20110105493A1, “HETEROCYCLYL SUBSTITUTED ARYLINDENOPYRIMIDINES AND THEIR USE AS HIGHLY SELECTIVE ADENOSINE A2a RECEPTOR ANTAGONISTS” (priority 2009, published 2011).

Tests used:
[1] = molecular target: T1, human adenosine A2A receptor (Homo sapiens, UniProt P29274); experiment: Adenosine A2A Receptor Functional Assay (A2A GAL2); format: cell-based; conditions: for IC50: CHO-K1 cells overexpressing human A2A receptor, cAMP inducible beta-galactosidase reporter, 15 nM NECA agonist challenge, read-out: A2AGal2; for A1/A2A: ratio of A1Gal2 to A2AGal2 values
T1 construct: expressed in transfected cells; host or cells: CHO-K1 cells with a cAMP inducible beta-galactosidase reporter gene
Experimental: Adenosine A2A Receptor Functional Assay (A2A GAL2)
To initiate the functional assay, cryopreserved CHO—K1 cells overexpressing the human adenosine A2A receptor and containing a cAMP inducible beta-galactosidase reporter gene were thawed, centrifuged, DMSO containing media removed, and then seeded with fresh culture media into clear 384-well tissue culture treated plates (BD #353961) at a concentration of 10K cells/well. Prior to assay, these plates were cultured for two days at 37° C., 5% CO2, 90% Rh. On the day of the functional assay, culture media was removed and replaced with 45 μL assay medium (Hams/F-12 Modified (Mediatech # 10-080CV) supplemented w/0.1% BSA). Test compounds were diluted and 11 point curves created at a 1000× concentration in 100% DMSO. Immediately after addition of assay media to the cell plates, 50 nL of the appropriate test compound antagonist or agonist control curves were added to cell plates using a Cartesian Hummingbird. Compound curves were allowed to incubate at room temperature on cell plates for approximately 15 minutes before addition of a 15 nM NECA (Sigma E2387) agonist challenge (5 μL volume). A control curve of NECA, a DMSO/Media control, and a single dose of Forskolin (Sigma F3917) were also included on each plate. After additions, cell plates were allowed to incubate at 37° C., 5% CO2, 90% Rh for 5.5-6 hours. After incubation, media were removed, and cell plates were washed 1×50 μL with DPBS w/o Ca & Mg (Mediatech 21-031-CV). Into dry wells, 20 μL of 1×Reporter Lysis Buffer (Promega E3971 (diluted in dH2O from 5× stock)) was added to each well and plates frozen at −20° C. overnight. For β-galactosidase enzyme colorimetric assay, plates were thawed out at room temperature and 20 μL 2× assay buffer (Promega) was added to each well. Color was allowed to develop at 37° C., 5% CO2, 90% Rh for 1-1.5 h or until reasonable signal appeared. The colorimetric reaction was stopped with the addition of 60 μL/well 1M sodium carbonate. Plates were counted at 405 nm on a SpectraMax Microplate Reader (Molecular Devices). Data was analyzed in Microsoft Excel and IC/EC50 curves were fit using a standardized macro.

[2] = molecular target: T2, human adenosine A1 receptor (Homo sapiens, UniProt P30542); experiment: Adenosine A1 Receptor Functional Assay (A1GAL2); format: cell-based; conditions: CHO-K1 cells overexpressing human A1 receptor, cAMP inducible beta-galactosidase reporter, 4 nM r-PIA/1 uM Forskolin agonist challenge
T2 construct: expressed in transfected cells; host or cells: CHO-K1 cells with a cAMP inducible beta-galactosidase reporter gene
T2 sequence (P30542 1-326): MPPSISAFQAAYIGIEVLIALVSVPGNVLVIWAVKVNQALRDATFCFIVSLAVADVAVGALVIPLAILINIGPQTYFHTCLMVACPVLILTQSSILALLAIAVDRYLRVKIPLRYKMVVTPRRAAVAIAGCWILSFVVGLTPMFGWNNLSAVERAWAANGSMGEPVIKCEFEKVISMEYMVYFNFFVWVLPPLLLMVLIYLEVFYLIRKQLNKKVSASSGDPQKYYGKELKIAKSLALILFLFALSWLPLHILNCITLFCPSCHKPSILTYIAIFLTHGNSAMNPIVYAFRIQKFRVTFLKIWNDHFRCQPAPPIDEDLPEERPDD
Experimental: Adenosine A1 Receptor Functional Assay (A1GAL2)
To initiate the functional assay, cryopreserved CHO—K1 cells overexpressing the human adenosine A1 receptor and containing a cAMP inducible beta-galactosidase reporter gene were thawed, centrifuged, DMSO containing media removed, and then seeded with fresh culture media into clear 384-well tissue culture treated plates (BD #353961) at a concentration of 10K cells/well. Prior to assay, these plates were cultured for two days at 37° C., 5% CO2, 90% Rh. On the day of the functional assay, culture media was removed and replaced with 45 μL assay medium (Hams/F-12 Modified (Mediatech # 10-080CV) supplemented w/0.1% BSA). Test compounds were diluted and 11 point curves created at a 1000× concentration in 100% DMSO. Immediately after addition of assay media to the cell plates, 50 nL of the appropriate test compound antagonist or agonist control curves were added to cell plates using a Cartesian Hummingbird. Compound curves were allowed to incubate at room temperature on cell plates for approximately 15 minutes before addition of a 4 nM r-PIA (Sigma P4532)/1 uM Forskolin (Sigma F3917) agonist challenge (5 μL volume). A control curve of r-PIA in1 uM Forskolin, a DMSO/Media control, and a single dose of Forskolin were also included on each plate. After additions, cell plates were allowed to incubate at 37° C., 5% CO2, 90% Rh for 5.5-6 hours. After incubation, media was removed, and cell plates were washed 1×50 μL with DPBS w/o Ca & Mg (Mediatech 21-031-CV). Into dry wells, 20 μL of 1×Reporter Lysis Buffer (Promega E3971 (diluted in dH2O from 5× stock)) was added to each well and plates frozen at −20° C. overnight. For β-galactosidase enzyme colorimetric assay, plates were thawed out at room temperature and 20 μL 2×assay buffer (Promega) was added to each well. Color was allowed to develop at 37° C., 5% CO2, 90% Rh for 1-1.5 h or until reasonable signal appeared. The colorimetric reaction was stopped with the addition of 60 μL/well 1M sodium carbonate. Plates were counted at 405 nm on a SpectraMax Microplate Reader (Molecular Devices). Data was analyzed in Microsoft Excel and IC/EC50 curves were fit using a standardized macro.

T1 sequence (P29274 whole entry): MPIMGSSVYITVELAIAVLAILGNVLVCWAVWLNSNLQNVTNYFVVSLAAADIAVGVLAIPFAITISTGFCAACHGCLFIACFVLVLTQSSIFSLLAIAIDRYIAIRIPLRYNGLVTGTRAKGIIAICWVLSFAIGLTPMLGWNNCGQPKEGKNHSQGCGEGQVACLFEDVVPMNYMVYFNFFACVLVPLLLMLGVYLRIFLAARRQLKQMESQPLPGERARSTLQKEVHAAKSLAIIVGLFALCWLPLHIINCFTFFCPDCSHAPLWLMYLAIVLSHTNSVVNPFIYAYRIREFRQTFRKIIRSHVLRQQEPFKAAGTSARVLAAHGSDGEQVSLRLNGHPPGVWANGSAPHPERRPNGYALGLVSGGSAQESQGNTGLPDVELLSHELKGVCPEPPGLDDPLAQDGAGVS

Structure (SMILES) | IC50 [1] [nM] | A1/A2A [1] | IC50 [2] [nM]
Nc1nc(-c2ccccc2)c2c(n1)-c1c(cccc1N1CCN(c3ccc(Cl)cc3)CC1)C2=O [Example 21, 2-Amino-9-[4-(4-chloro-phenyl)-piperazin-1-yl]-4-phenyl-indeno[1,2-d]pyrimidin-5-one] | 1.5 | 80 | 120
Nc1nc(-c2ccccc2)c2c(n1)-c1c(cccc1N1CCN(CC3CC3)CC1)C2=O [Example 22, 2-Amino-9-(4-cyclopropylmethyl-piperazin-1-yl)-4-phenyl-indeno[1,2-d]pyrimidin-5-one] | 10.6 | 77.5711 | 818
C=CCN1CCN(c2cccc3c2-c2nc(N)nc(-c4ccccc4)c2C3=O)CC1 [Example 23, 9-(4-Allyl-piperazin-1-yl)-2-amino-4-phenyl-indeno[1,2-d]pyrimidin-5-one] | 12.5 | 60.0758 | 748
Nc1nc(-c2ccccc2)c2c(n1)-c1c(cccc1N1CCC(N3CCOCC3)CC1)C2=O [Example 24, 2-Amino-9-(4-morpholin-4-yl-piperidin-1-yl)-4-phenyl-indeno[1,2-d]pyrimidin-5-one] | 4.7 | 57.4468 | 270
CC(=O)C1(c2ccccc2)CCN(c2cccc3c2-c2nc(N)nc(-c4ccccc4)c2C3=O)CC1 [Example 25, 9-(4-Acetyl-4-phenyl-piperidin-1-yl)-2-amino-4-phenyl-indeno[1,2-d]pyrimidin-5-one] | 4.2 | 52.381 | 220
Nc1nc(-c2ccccc2)c2c(n1)-c1c(cccc1N1CCN(c3cccnc3)CC1)C2=O [Example 26, 2-Amino-4-phenyl-9-(4-pyridin-3-yl-piperazin-1-yl)-indeno[1,2-d]pyrimidin-5-one] | 0.6 | 51.6667 | 31
